From BindingDB's records for doi:10.1021/jm000508c (Ontogen, 2001)

What was measured:
[1] = Inhibitory activity against P-selectin using cell-cell assay
[2] = Inhibitory activity against Selectin E using cell-cell assay

Row | IC50 [1] | IC50 [2] | Compound
1 | 14 µM | 30 µM | CCCCCCCCCCCCCCCCNC(=O)C=Cc1ccc(-c2[nH]c(-c3ccc(C4=NOC(C(=O)O)C4)cc3)nc2-c2ccc(C=CC(=O)O)cc2)cc1 (stereo not drawn) [3-(4-{4-[4-(2-Carboxy-vinyl)-phenyl]-5-[4-(2-hexadecylcarbamoyl-vinyl)-phenyl]-1H-imidazol-2-yl}-phenyl)-4,5-dihydro-isoxazole-5-carboxylic acid]
2 | 500 µM |  | CCCCCCCCCCCCNC(=O)C=Cc1ccc(-c2[nH]c(-c3ccc(-c4cc(C(=O)O)on4)cc3)nc2-c2ccc(C=CC(=O)O)cc2)cc1 [3-(4-{4-[4-(2-Carboxy-vinyl)-phenyl]-5-[4-(2-dodecylcarbamoyl-vinyl)-phenyl]-1H-imidazol-2-yl}-phenyl)-isoxazole-5-carboxylic acid]
3 | 98 µM | > 100 µM | CCCCCCCCCCCCCCCCNC(=O)C=Cc1ccc(-c2[nH]cnc2-c2ccc(C=CC(=O)O)cc2)cc1 [3-(4-{5-[4-(2-Hexadecylcarbamoyl-vinyl)-phenyl]-1H-imidazol-4-yl}-phenyl)-acrylic acid]
4 | 8 µM | 20 µM | CCCCCCCCCCCCCCCCNC(=O)C=Cc1ccc(-c2[nH]c(-c3ccc(-c4cc(C(=O)O)on4)cc3)nc2-c2ccc(C=CC(=O)O)cc2)cc1 [3-(4-{4-[4-(2-Carboxy-vinyl)-phenyl]-5-[4-(2-hexadecylcarbamoyl-vinyl)-phenyl]-1H-imidazol-2-yl}-phenyl)-isoxazole-5-carboxylic acid]
5 | 123 µM |  | O=C(O)C=Cc1ccc(-c2nc(-c3ccc(C4=NOC(C(=O)O)C4)cc3)c(-c3ccc(C=CC(=O)NCCCc4ccccc4)cc3)[nH]2)cc1 (stereo not drawn) [3-[4-(2-[4-(2-Carboxy-vinyl)-phenyl]-5-{4-[2-(3-phenyl-propylcarbamoyl)-vinyl]-phenyl}-1H-imidazol-4-yl)-phenyl]-4,5-dihydro-isoxazole-5-carboxylic acid]
